Reference: patent US20160030369A1, “FKBP52 TARGETING AGENT PHARMACEUTICAL COMPOSITIONS” (THE UNITED STATES OF AMERICA AS REPRESENTED BY THE …, priority 2013, published 2016)
In brackets after ≈: the same amount, converted by molar mass. Like-named read-outs stand apart in the source and are kept apart here.

Experiments:
[1] = Solubility of MJC13 in 50% (w/v) HP-β-CD aqueous solution; type: physicochemical
Protocol: An excess amount of MJC13 was added to a sealed glass vial (2 ml) containing saturated (50% w/v) 2-hydroxypropyl-β-cyclodextrin (HP-β-CD) aqueous solution. The vial was shaken at room temperature for 72 hours. Thereafter, the solution was centrifuged, filtered through a 0.2 μm membrane and analyzed for MJC13 by the LC/MS/MS method of Example 1. Experiments were conducted in triplicate. […] It is believed that the resulting pharmaceutical composition has improved biocompatibility because it lacks TWEEN 80 (polysorbate 80).

[2] = Processed sample (autosampler) stability of MJC13 rat plasma and urine extracts; type: physicochemical; conditions: for average recoveries: acetonitrile with IS; for recoveries: acetonitrile without IS
Protocol: Processed sample stability (on-instrument or autosampler stability) of MJC13 rat plasma extracts and rat urine extracts were evaluated by analyzing QC samples at low, medium, and high concentrations. Two sets of plasma samples were extracted with acetonitrile with and without IS, respectively. The plasma extracts were kept in the autosampler for 2, 4, or 6 hours, before injecting into the LC-MS/MS. All of those samples were compared with freshly prepared samples at the same concentrations.

[3] = Freeze-thaw stability of MJC13 in rat plasma and rat urine; type: in vitro ADME
Protocol: Freeze-thaw stability of MJC13 in rat plasma and rat urine were evaluated by analyzing QC samples at low, medium, and high concentrations. Plasma samples that were exposed for three cycles of freezing (at −20° C.) and thawing (at room temperature) were compared with freshly prepared samples at the same concentrations.
(§1) The stability of MJC13 in rat urine was conducted in the same fashion as in rat plasma.

[4] = Solubility of MJC13 in various solvents, shake-flask method; type: physicochemical; conditions: DMSO, organic solvent or mixture
[5] = Lipophilicity (log P) between water and 1-octanol, shake-flask; type: physicochemical; conditions: 1-octanol/water, room temperature, read-out: experimental log P
Protocol: The lipophilicity of MJC13 was determined as the logarithm of partition coefficient (log P) of the solute between water and 1-octanol. Equal volumes of two-phase solution (water and 1-octanol) was mixed well in a capped glass bottle and then placed in a shaker for 24 hours to make sure that saturation equilibrium had been achieved. MJC13 (1 mL) dissolved in the two-phase solution was added the bottle. Then, MJC13 was partitioned between aqueous and 1-octanol for 72 hours at room temperature using the shake-flask method. The mixture from the bottle was centrifuged at 3000 rpm for 10 minutes and subsequently filtered through a 0.22 μm ultrafiltration unit, and then moved to a separatory funnel for phase separation. The aqueous and 1-octanol phases were analyzed by LC-MS/MS to determine the concentration of drug dissolved. Experiments were conducted in triplicate. The log P was calculated according to Eq. 3: […]
where Co and Cw represent the concentrations of MJC13 in 1-octanol and aqueous phase, respectively.

[6] = Short-term (bench-top) and frozen storage stability of MJC13 in rat plasma and rat urine; type: in vitro ADME
Protocol: Short-term stability (bench-top stability) of MJC13 in rat plasma and rat urine were evaluated by analyzing triplicates of QC samples at low, medium, and high concentrations. Plasma samples were removed from frozen storage (−20° C.) and remained on the bench-top for 2, 4, or 6 hours. All of those samples were compared with freshly prepared samples at the same concentrations. […] Another set of plasma samples were stored at −80° C. for 7 days.
as §1

[7] = Solubility of MJC13 in various solvents, shake-flask method; type: physicochemical; conditions: thermodynamic from solid
Protocol: The solubility of MJC13 was evalulated. Because there is no ionizable functional group on the molecular structure, the solubility of MJC13 was expected to be low in water and barely affected by pH. In this work, the solubility of MJC13 in water, ethanol, propylene glycol, polyethylene glycol 400 (PEG 400), polysorbate 80 (Tween 80), olive oil, peanut oil, soybean oil, CAPTEX 200 and LABRAFAC Lipophile WL1349 was determined by a shake-flask method. Briefly, an excess amount of MJC13 was added to each capped glass bottle containing the selected vehicle and mixed for 48 hours at room temperature using a reciprocating shaker. The samples were centrifuged at 3000 rpm for 10 minutes and were subsequently filtered through a 0.22 μm ultrafiltration unit. The filtrates were analyzed by LC/MS/MS to determine the concentration of drug dissolved. The experiments were conducted in triplicate.

[8] = test system: AR; conditions: cellular models of prostate cancer, micromolar concentrations; cited from earlier work
[9] = Pharmacokinetics of MJC13 (Formulation PT4) after IV bolus in rats, three-compartment model; type: in vivo, Sprague-Dawley rats; conditions: single IV bolus 2 mg/kg, Formulation PT4, n = 8; for half-life / Vd: iv, 2 mg/kg
Protocol: To further determine the fate of MJC13 in live animals and verify the applicability of the developed LC/MS/MS assay and formulations, pharmacokinetic studies were performed in rats. The animal experiment and protocol were reviewed and approved by the Institutional Animal Care and Use Committee at Texas Southern University. The jugular veins of eight male adult Sprague-Dawley rats (358˜377 g) were cannulated under anesthesia using a cocktail of ketamine:acetopromazine:xylazine (50:3.3:3.3 mg/kg) the day before the study. On the day of study, Formulation PT4, which includes PEG 400 and Tween 80 (1:1, v/v) with a MJC13 concentration of 7.5 mg/mL, was diluted to 1 mg/mL by normal saline. Blood and urine samples were collected from each rat right before dosing. Each rat was given a 2 mg/kg intravenous (IV) bolus dose of MJC13. Blood sample collecting tubes were heparinized and dried. In order to avoid any possible contamination, after dosing for each rat, the foremost part of each tubing associated with the needle for dosing was cut off, and then 0.5 mL of normal saline containing 20 U/mL heparin was injected to flush the tubing. Blood samples (250 μL; n=8) were collected at 5, 10, 15, 30 minutes, 1, 2, 4, 6, 8, 12, 24, 48 and 72 hours post injection, respectively. The blood samples were centrifuged at 13,000 rpm for 10 minutes and the supernatants (plasma) were obtained and immediately stored at −80° C. until analysis. Urine samples (n=4) were collected periodically, including 0-2, 2-4, 4-8, 8-12, 12-24, 24-48 and 48-72 hours post injection. After measurement of the overall urinary volume of each interval, urine samples were immediately stored at −80° C. until analysis. Within 48 hours, those plasma and urine samples were analyzed by the LC/MS/MS method of Example 1 to obtain MJC13 concentrations. After analysis, the plasma concentrations and cumulative urinary excretions of MJC13 were presented as the mean value with standard deviation (SD) and plotted against time by SigmaPlot 12.3 (Systat Software, San Jose, Calif.). (FIGS. 5, 6, 7A, and 7B).
The intravenous drug plasma concentration-time data were pharmacokinetically analyzed separately for each rat by compartmental modeling using the microcomputer-based nonlinear regression program, WINNONLIN software 5.2.1 (Pharsight Corporation, Mountain View, Calif.). A three-compartment model was provided which best described the fit for the IV bolus administration based on the appearance of the observed and predicted concentrations, the reduction in the sums of squares, and the Akaike's information criterion (Yamaoka et al., J. Pharmacokinet Biopharm., 6(2): 165-75 (1978)). The three-compartment model is described by Eq. 5:
Ct=A·e^−αt+B·e^−βt+C·e^−γt, Eq. 5
where A, B and C are the coefficients, α is the α-phase hybrid rate constant, β is β-phase hybrid rate constant, γ is the γ-phase hybrid rate constant, and Ct is the plasma concentration of MJC13 at time t. The pharmacokinetic parameters thus derived were the systemic or plasma clearance (Cl), the volume of distribution (Vd), the total area under the plasma drug concentration-time curve (AUC), and half-lives (T1/2).

[10] = Rat plasma protein binding by ultrafiltration; type: in vitro ADME; conditions: 37° C.
Protocol: In vitro rat plasma samples of MJC13 were prepared by diluting the stock solution with acetonitrile and spiking in rat plasma at five different concentrations: 100, 500, 1000, 2000 and 5000 ng/mL to approximate the plasma concentrations of MJC13 in rats after 2 mg/kg intravenous bolus dosing. The plasma was incubated at 37° C. for 1 hours before being transferred to Amicon Ultra-0.5 mL Centrifugal Filters (EMD Millipore Corporation, Billerica, Mass.) for ultrafiltration at 3000 rpm for 10 minutes. Filtrate and nonfiltrate concentrations were determined by LC-MS/MS. The fraction unbound, fu, was determined as Eq. 4:
where Cu is the unbound concentration and Ct is the total concentration.

[11] = rat plasma extract, autosampler 2 hours
[12] = rat plasma extract, autosampler 4 hours
[13] = rat plasma extract, autosampler 6 hours
[14] = rat urine extract, autosampler 2 hours
[15] = rat urine extract, autosampler 4 hours
[16] = rat urine extract, autosampler 6 hours

O=C(Nc1cccc(Cl)c1Cl)C1CCCCC1 [MJC13]
solubility at 72 h ([1]; 50% (w/v) HP-β-CD aqueous solution, aqueous with cosolvent or surfactant or cyclodextrin, thermodynamic from solid, room temperature, 72 hours): 2.6 ± 0.3 mg/mL (≈ 9.55 mM) | increase of solubility compared to MJC13 itself in pure water ([1]; 50% (w/v) HP-β-CD solution vs pure water): 10,000 fold | average recoveries [2, 11]: 97.6±1.3% | average recoveries [2, 12]: 98.3±1.5% | average recoveries [2, 13]: 96.7±0.7% | recoveries [2, 11]: 96.1±1.3% | recoveries [2, 12]: 97.6±1.1% | recoveries [2, 13]: 97.7±2.4% | average recoveries [2, 14]: 95.8±3.2% | average recoveries [2, 15]: 98.6±2.5% | average recoveries [2, 16]: 97.9±1.7% | recoveries [2, 14]: 97.4±2.2% | recoveries [2, 15]: 97.1±1.9% | recoveries [2, 16]: 96.4±3.3% | average MJC13 amount remaining ([3]; rat plasma, three freeze (−20° C.)-thaw (room temperature) cycles): 96.7±2.0% | average MJC13 amount remaining ([3]; rat urine, three freeze-thaw cycles): 97.5±2.4% | solubility [4]: > 100 mg/mL | logP at 72 h [5]: 6.49 ± 0.37 | average MJC13 amount remaining ([6]; rat plasma, bench-top, 2 hours): 98.6±1.7% | average MJC13 amount remaining ([6]; rat plasma, bench-top, 4 hours): 97.6±2.0% | average MJC13 amount remaining ([6]; rat plasma, bench-top, 6 hours): 97.4±1.2% | average recoveries ([6]; rat plasma, stored at −80° C. for 7 days): 96.4±1.4% | average MJC13 amount remaining ([6]; rat urine, bench-top, 2 hours): 97.9±2.5% | average MJC13 amount remaining ([6]; rat urine, bench-top, 4 hours): 99.1±1.9% | average MJC13 amount remaining ([6]; rat urine, bench-top, 6 hours): 96.7±2.8% | average MJC13 amount remaining ([6]; rat urine, stored at −80° C. for 7 days): 95.9±2.7% | solubility at 48 h ([7]; Captex 200, oil or lipid, Captex ® 200, room temperature, read-out: Solubility): 31.9 ± 1.6 mg/mL (≈ 117 mM) | solubility at 48 h ([7]; Labrafac Lipophile WL1349, oil or lipid, Labrafac ™ Lipophile WL1349, room temperature, read-out: Solubility): 24 ± 1.1 mg/mL (≈ 88.2 mM) | solubility at 48 h ([7]; PEG 400, organic solvent or mixture, PEG 400, room temperature, read-out: Solubility): 23 ± 0.7 mg/mL (≈ 84.5 mM) | solubility at 48 h ([7]; ethanol, organic solvent or mixture, Ethanol, room temperature, read-out: Solubility): 35.6 ± 1.8 mg/mL (≈ 131 mM) | solubility at 48 h ([7]; olive oil, oil or lipid, Olive oil, room temperature, read-out: Solubility): 16.2 ± 0.3 mg/mL (≈ 59.5 mM) | solubility at 48 h ([7]; peanut oil, oil or lipid, Peanut oil, room temperature, read-out: Solubility): 15.6 ± 0.4 mg/mL (≈ 57.3 mM) | solubility at 48 h ([7]; polysorbate 80 (Tween 80), organic solvent or mixture, Polysorbate 80, room temperature, read-out: Solubility): 28.2 ± 0.7 mg/mL (≈ 104 mM) | solubility at 48 h ([7]; propylene glycol, organic solvent or mixture, Propylene glycol, room temperature, read-out: Solubility): 5.7 ± 0.2 mg/mL (≈ 20.9 mM) | solubility at 48 h ([7]; soybean oil, oil or lipid, Soybean oil, room temperature, read-out: Solubility): 17.3 ± 0.5 mg/mL (≈ 63.6 mM) | solubility at 48 h ([7]; water, Water, room temperature, read-out: Solubility): 0.00028 mg/mL (≈ 0.00103 mM) | solubility at 48 h ([7]; water, water, room temperature, read-out: water solubility): 0.00028 mg/mL (≈ 0.00103 mM) | block of AR-dependent gene expression [8]: effectively block AR-dependent gene expression | clearance ([9]; male, Sprague-Dawley, plasma, rat, read-out: Cl (total body clearance)): 6.04 ± 2.43 mL/min/kg | half-life ([9]; male, Sprague-Dawley, rat, plasma, rat plasma, read-out: T1/2α (elimination half-life of α-phase)): 0.094 ± 0.0217 h | half-life ([9]; male, Sprague-Dawley, rat, plasma, rat plasma, read-out: T1/2β (elimination half-life of β-phase)): 2.1 ± 0.317 h | half-life ([9]; male, Sprague-Dawley, rat, plasma, rat plasma, read-out: T1/2γ (elimination half-life of γ-phase)): 32.3 ± 12.1 h | Vd ([9]; male, Sprague-Dawley, rat, plasma, rat, read-out: V1 (volume of distribution of central compartment)): 0.744 ± 0.074 L/kg | Vd ([9]; male, Sprague-Dawley, rat, plasma, rat, read-out: Vss (volume of distribution at steady state)): 10.8 ± 2.13 L/kg | AUC(0-inf) ([9]; male, Sprague-Dawley, rat plasma, read-out: AUC0-∞ (area under curve from time zero to infinity) (converted)): 6640 ng·h/mL | Cmax ([9]; male, Sprague-Dawley, rat plasma, read-out: Cmax (maximum concentration)): 2710 ± 251 ng/mL | A (coefficient of α-phase) ([9]; rat plasma): 2124 ± 222 ng/mL | B (coefficient of β-phase) ([9]; rat plasma): >483 ± 126 ng/mL | C (coefficient of γ-phase) ([9]; rat plasma): 101 ± 36 ng/mL | V2 (volume of distribution of first peripheral compartment) ([9]; rat): 2.038 ± 0.646 L/kg | V3 (volume of distribution of second peripheral compartment) ([9]; rat): 8.068 ± 1.6 L/kg | fraction bound at 1 h, 100 ng/mL ([10]; 100 ng/mL): 0.981 ± 0.015 | fraction bound at 1 h, 500 ng/mL ([10]; 500 ng/mL): 0.976 ± 0.027 | fraction bound at 1 h, 1000 ng/mL ([10]; 1000 ng/mL): 0.996 ± 0.017 | fraction bound at 1 h, 2000 ng/mL ([10]; 2000 ng/mL): 0.972 ± 0.028 | fraction bound at 1 h, 5000 ng/mL ([10]; 5000 ng/mL): 0.979 ± 0.024
